# Data published in ChEMBL document CHEMBL5357055, “Protoilludane-Type and Related Nor-Sesquiterpenes from Phellinus hartigii and Their Anti-Hypertrophic Activities in Rat Cardiomyocytes” (J Nat Prod, 2024).
# Calls of active or inactive are those of the source. No cut-off for these calls is given here.
# What was measured:
# NRCM [1] = test: Anticardiac hypertrophic activity in phenylephrine-induced hypertrophy in Sprague-Dawley rat NRCM cells assessed as reduction in inhibition of ANP level at 50 uM preincubated for 12 hrs followed by phenylephrine stimulation and measured after 48 hrs by Westernblot analysis; assay type: functional, cell-based; conditions: time 60.0 hrs
# [2] = Cytotoxicity against NRCM cells assessed as reduction in cell viability measured after 48 hrs by CCK-8 method; assay type: toxicity, cell-based; conditions: rat
# NRCM [3] = test: Anticardiac hypertrophic activity in phenylephrine-induced hypertrophy in Sprague-Dawley rat NRCM cells assessed as attenuation of cardiomyocyte hypertrophy preincubated for 12 hrs followed by phenylephrine stimulation and measured after 48 hrs by 488-I Phalloidin/DAPI staining based fluorescence microscopic analysis; assay type: functional, cell-based; conditions: time 60.0 hrs
# NRCM [4] = test: Anticardiac hypertrophic activity in phenylephrine-induced hypertrophy in Sprague-Dawley rat NRCM cells assessed as reduction in NPPB mRNA expression level at 50 uM preincubated for 12 hrs followed by phenylephrine stimulation and measured after 48 hrs by qRT-PCR analysis; assay type: functional, cell-based; conditions: time 60.0 hrs
# NRCM [5] = test: Anticardiac hypertrophic activity in phenylephrine-induced hypertrophy in Sprague-Dawley rat NRCM cells assessed as reduction in inhibition of MYH7 level at 50 uM preincubated for 12 hrs followed by phenylephrine stimulation and measured after 48 hrs by Westernblot analysis; assay type: functional, cell-based; conditions: time 60.0 hrs
# NRCM [6] = test: Anticardiac hypertrophic activity in phenylephrine-induced hypertrophy in Sprague-Dawley rat NRCM cells assessed as reduction in NPPA mRNA expression level at 50 uM preincubated for 12 hrs followed by phenylephrine stimulation and measured after 48 hrs by qRT-PCR analysis; assay type: functional, cell-based; conditions: time 60.0 hrs
SMILES,Activity (NRCM [1]),CC50 at 48 h [2],Activity (NRCM [3]),Activity (NRCM [4]),Activity (NRCM [5]),Activity (NRCM [6])
C[C@@]12CC[C@@](C)(C1=O)[C@H]1C[C@H](C(=O)O)C[C@H]1C2,Active,> 50 µM,Active,Active,Active,Active
COC(=O)[C@@H]1C[C@@H]2C[C@@H](C)[C@@H]3OC(=O)C[C@]3(C)[C@H]2C1,Active,> 50 µM,Active,Active,Active,Active
COC(=O)[C@@H]1C[C@@H]2C[C@@H](C)[C@@H]3C(=O)C[C@]3(C)[C@H]2C1,Active,> 50 µM,Active,Active,Active,Active
